Data published in patent US20240385177A1, “Screening Method Using Brown Adipocytes” (KATAOKA CORPORATION, priority 2021, published 2024).
Entries after “also recorded” stand apart in the source; their conditions may differ.

Test system: low-molecular-weight compound-induced brown adipocytes (ciBAs)
Test: Evaluation of browning tendency of ciBAs directly induced from human fibroblasts (Ucp1/Fabp4/Cidea expression, UCP1 protein, induction efficiency, mtDNA, OCR)
Format: cell-based
Settings: human fibroblasts cultured 3 weeks
Description: The human fibroblasts used as material were purchased from DS Pharma Biomedical, Co., Ltd. The fibroblasts are derived from human skin. The above human fibroblasts were seeded in 35 mm dishes coated with gelatin (Cat #: 190-15805, manufactured by FUJIFILM Wako Pure Chemical Co.) at 5×10^4, and cultured in DMEM medium (Cat #: 11965092; manufactured by Gibco) supplemented with 10% fetal bovine serum (FBS), 100 U/mL penicillin, 100 μg/mL streptomycin until 80% to 90% confluency at 37° C., 5% CO2.
Then, after the human fibroblasts reached 80 to 90% confluency, the medium in the dish was replaced with the serum-free brown adipocyte-inducing medium “SFBAM” described below, and the human fibroblasts were cultured in SFBAM for 3 weeks. To induce ciBA, SFBAM was further supplemented with rosiglitazone (selective PPARγ agonist; 184-02651, manufactured by FUJIFILM Wako Pure Chemical Corporation) at a final concentration of 1 μmol/L, forskolin (cAMP inducer; 063-02193) at a final concentration of 7.5 μmol/L and BMP7 (bone morphogenetic protein; 026-19171, manufactured by FUJIFILM Wako Pure Chemical Corporation) at a final concentration of 20 ng/mL, and human fibroblasts were cultured for 3 weeks. Separately, capsaicin (TRPV1 agonist; 030-11353, manufactured by FUJIFILM Wako Pure Chemical Corporation) and/or nonivamide (TRPV1 agonist; sc-202735, Santa Cruz Biotechnology (manufactured by Santa Cruz Biotechnology, CA, USA), capsazepine (TRPV1 antagonist; 037-23171, manufactured by FUJIFILM Wako Pure Chemical Corporation), AMG9810 (TRPV1 antagonist; 015-25071, FUJIFILM Wako Pure Chemical Corporation), GSK1016790A (TRPV4 agonist; G0798, manufactured by Sigma-Aldrich) were added and human fibroblasts were cultured for 3 weeks. Medium was changed every 3 days.
SFBAM is a serum-free brown adipocyte-inducing medium prepared by adding each ingredient in Table 1 to DMEM medium (Cat #: 11965092; manufactured by Gibco).
To quantify gene expression, total RNA was extracted from fibroblasts treated with each compound using the FastGene (registered trademark) RNA basic kit (manufactured by Nippon Genetics). As a control, fibroblasts were cultured in parallel using SFBAM and total RNA was extracted from compound-induced brown adipocytes and control cells. After reverse transcription by ReverTraAce (registered trademark) PCR RT Master Mix with gDNA Remover (manufactured by Toyobo), Real-time PCR analysis was performed using Power SYBR Green PCR Master Mix (manufactured by Thermo Fisher Scientific). Three reactions were performed per level under the following conditions. • After 10 minutes at 95° C., • The cycle time is 15 seconds at 95° C., followed by 60 seconds at 60° C., for 40 cycles.
All results were standardized by the amount of Tbp mRNA.
Immunocytochemistry was performed as previously reported (Dai P, et al. J Clin Biochem Nutr. 2015; 56(3): 166-70). First, cells were fixed with 4% paraformaldehyde (manufactured by Nacalai Tesque). After washed with phosphate-buffered saline (PBS) three times, the cells were incubated with PBS containing 0.1% Triton X-100 for 10 minutes. The cells were then blocked with PBS containing 3% skim milk for 1hour at room temperature. UCP-1 antibodies (ab10983, manufactured by Abcam, Cambridge, UK) were diluted 1/500 with the blocking solutions. The cells were incubated with the antibodies overnight at 4° C. […] All images were acquired using a fluorescence microscopy (BZ-X710-All-in-One Fluorescence Microscope, manufactured by Keyence). […]

[1] = TRPV1 antagonist added to culture with RoFB and capsaicin (25 μmol/L), FIGS. 8, 9
[2] = compound added to SFBAM with rosiglitazone, forskolin and BMP7 (RoFB), FIGS. 1-7, 10-12

| Compound | browning tendency of ciBAs [1] | browning tendency of ciBAs [2] |
| --- | --- | --- |
| Oc1cc2c(cc1O)CN(C(=S)NCCc1ccc(Cl)cc1)CCC2 [capsazepine] | suppressed the browning tendency | – |
| COc1cc(CNC(=O)CCCC/C=C/C(C)C)ccc1O [capsaicin] | – | enhanced; also recorded: promotes adipocyte browning |
| CCCCCCCCC(=O)NCc1ccc(O)c(OC)c1 [nonivamide] | – | increased the browning tendency |
| CC(C)C[C@H](NC(=O)c1cc2ccccc2s1)C(=O)N1CCN(C(=O)[C@H](CO)NS(=O)(=O)c2ccc(Cl)cc2Cl)CC1 [GSK1016790A] | – | suppressed; also recorded: inhibits adipocyte browning |
| CC(C)(C)c1ccc(/C=C/C(=O)Nc2ccc3c(c2)OCCO3)cc1 [AMG9810] | suppressed the browning tendency | – |
